Active and inactive are the calls of the source. How the calls were made is not given here.
System: rodent lifetime carcinogenesis bioassay, tumor incidence TD50
Assay: chronic cancer bioassays in animals – CPDB, compiled studies (AID 1745844)

OCCOCCO
carcinogen call (rat, strain F344/DuCrj, females, in drinking water, site: any site (literature study), lesion: several types, types named in the paper, dosed 108 weeks, study length 108 weeks): negative (inactive)
carcinogen call (rat, strain F344/DuCrj, females, in drinking water, site: liver, lesion: neoplastic nodule, dosed 108 weeks, study length 108 weeks): negative (inactive)
carcinogen call (rat, strain F344/DuCrj, males, in drinking water, site: any site (literature study), lesion: several types, types named in the paper, dosed 108 weeks, study length 108 weeks): negative (inactive)
TD50 (rat, strain F344/DuCrj, males, in drinking water, site: liver, lesion: neoplastic nodule, dosed 108 weeks, study length 108 weeks): 34200 mg/kg/day (inactive)
TD50 (rat, strain Osborne-Mendel, males, in feed, site: urinary bladder, lesion: several types, types named in the paper, dosed 104 weeks, study length 104 weeks): 1660 mg/kg/day

Cc1ccc(S(=O)(=O)NC(=O)NN2CCCCCC2)cc1
carcinogen call (mouse, strain B6C3F1, females, in feed, site: any site (literature study), lesion: several types, types named in the paper, dosed 103 weeks, study length 104 weeks): negative (inactive)
carcinogen call (mouse, strain B6C3F1, males, in feed, site: any site (literature study), lesion: several types, types named in the paper, dosed 103 weeks, study length 104 weeks): negative (inactive)
TD50 (mouse, strain B6C3F1, males, in feed, site: lung, lesion: alveolar/bronchiolar adenoma + alveolar/bronchiolar carcinoma, dosed 103 weeks, study length 104 weeks): 24600 mg/kg/day
carcinogen call (rat, strain Fischer 344, females, in feed, site: any site (literature study), lesion: several types, types named in the paper, dosed 103 weeks, study length 105 weeks): negative (inactive)
carcinogen call (rat, strain Fischer 344, males, in feed, site: any site (literature study), lesion: several types, types named in the paper, dosed 103 weeks, study length 104 weeks): negative (inactive)

ClC(Br)Br
TD50 (mouse, strain B6C3F1, females, by gavage, site: liver, lesion: hepatocellular adenoma + hepatocellular carcinoma + neoplastic nodule, dosed 105 weeks, study length 106 weeks): 139 mg/kg/day
TD50 (mouse, strain B6C3F1, females, by gavage, site: liver, lesion: hepatocellular adenoma + hepatocellular carcinoma, dosed 105 weeks, study length 106 weeks): 139 mg/kg/day
TD50 (mouse, strain B6C3F1, females, by gavage, site: liver, lesion: hepatocellular adenoma, dosed 105 weeks, study length 106 weeks): 211 mg/kg/day
TD50 (mouse, strain B6C3F1, males, by gavage, site: any site (literature study), lesion: several types, types named in the paper, dosed 105 weeks, study length 106 weeks): 11.3 mg/kg/day
TD50 (mouse, strain B6C3F1, males, by gavage, site: liver, lesion: hepatocellular adenoma + hepatocellular carcinoma + neoplastic nodule, dosed 105 weeks, study length 106 weeks): 20.7 mg/kg/day
TD50 (mouse, strain B6C3F1, males, by gavage, site: liver, lesion: hepatocellular adenoma + hepatocellular carcinoma, dosed 105 weeks, study length 106 weeks): 20.7 mg/kg/day
TD50 (mouse, strain B6C3F1, males, by gavage, site: liver, lesion: hepatocellular carcinoma, dosed 105 weeks, study length 106 weeks): 33.5 mg/kg/day
TD50 (mouse, strain B6C3F1, males, by gavage, site: lung, lesion: alveolar/bronchiolar adenoma + alveolar/bronchiolar carcinoma, dosed 105 weeks, study length 106 weeks): 115 mg/kg/day
carcinogen call (rat, strain Fischer 344, females, by gavage, site: any site (literature study), lesion: several types, types named in the paper, dosed 104 weeks, study length 105 weeks): negative (inactive)
TD50 (rat, strain Fischer 344, females, by gavage, site: liver, lesion: hepatocellular adenoma + hepatocellular carcinoma + neoplastic nodule, dosed 104 weeks, study length 105 weeks): 591 mg/kg/day
carcinogen call (rat, strain Fischer 344, males, by gavage, site: any site (literature study), lesion: several types, types named in the paper, dosed 104 weeks, study length 105 weeks): negative (inactive)
TD50 (rat, strain Fischer 344, males, by gavage, site: liver, lesion: hepatocellular adenoma + hepatocellular carcinoma + neoplastic nodule, dosed 104 weeks, study length 105 weeks): 150 mg/kg/day

COc1ccc(C)cc1N
TD50 (mouse, strain B6C3F1, females, in feed, site: any site (literature study), lesion: several types, types named in the paper, dosed 97 weeks, study length 97 weeks): 75 mg/kg/day
TD50 (mouse, strain B6C3F1, females, in feed, site: liver + urinary bladder, lesion: hepatocellular adenoma + hepatocellular carcinoma + carcinoma, NOS + neoplasm, NOS, malignant + squamous-cell carc, dosed 97 weeks, study length 97 weeks): 69 mg/kg/day
TD50 (mouse, strain B6C3F1, females, in feed, site: liver, lesion: hepatocellular adenoma + hepatocellular carcinoma + neoplastic nodule, dosed 97 weeks, study length 97 weeks): 301 mg/kg/day
TD50 (mouse, strain B6C3F1, females, in feed, site: liver, lesion: hepatocellular adenoma + hepatocellular carcinoma, dosed 97 weeks, study length 97 weeks): 301 mg/kg/day
TD50 (mouse, strain B6C3F1, females, in feed, site: liver, lesion: hepatocellular carcinoma, dosed 97 weeks, study length 97 weeks): 315 mg/kg/day
TD50 (mouse, strain B6C3F1, females, in feed, site: lung, lesion: alveolar/bronchiolar adenoma + alveolar/bronchiolar carcinoma, dosed 97 weeks, study length 97 weeks): 3810 mg/kg/day
TD50 (mouse, strain B6C3F1, females, in feed, site: urinary bladder, lesion: carcinoma, NOS + neoplasm, NOS, malignant + squamous-cell carcinoma + transitional-cell carcinoma, dosed 97 weeks, study length 97 weeks): 69 mg/kg/day
TD50 (mouse, strain B6C3F1, females, in feed, site: urinary bladder, lesion: carcinoma, NOS + squamous-cell carcinoma + transitional-cell carcinoma, dosed 97 weeks, study length 97 weeks): 70.1 mg/kg/day
TD50 (mouse, strain B6C3F1, males, in feed, site: any site (literature study), lesion: several types, types named in the paper, dosed 97 weeks, study length 97 weeks): 46.4 mg/kg/day
TD50 (mouse, strain B6C3F1, males, in feed, site: liver, lesion: hepatocellular adenoma + hepatocellular carcinoma + neoplastic nodule, dosed 97 weeks, study length 97 weeks): 255 mg/kg/day
TD50 (mouse, strain B6C3F1, males, in feed, site: lung, lesion: alveolar/bronchiolar adenoma + alveolar/bronchiolar carcinoma, dosed 97 weeks, study length 97 weeks): 1170 mg/kg/day
TD50 (mouse, strain B6C3F1, males, in feed, site: urinary bladder, lesion: squamous-cell carcinoma + transitional-cell carcinoma, dosed 97 weeks, study length 97 weeks): 44.7 mg/kg/day
TD50 (rat, strain Fischer 344, females, in feed, site: adrenal gland, lesion: cortical adenoma, dosed 104 weeks, study length 105 weeks): 1490 mg/kg/day
TD50 (rat, strain Fischer 344, females, in feed, site: any site (literature study), lesion: several types, types named in the paper, dosed 104 weeks, study length 105 weeks): 93.8 mg/kg/day
TD50 (rat, strain Fischer 344, females, in feed, site: liver, lesion: hepatocellular adenoma + hepatocellular carcinoma + neoplastic nodule, dosed 104 weeks, study length 105 weeks): 2180 mg/kg/day
TD50 (rat, strain Fischer 344, females, in feed, site: nasal cavity + urinary bladder, lesion: olfactory neuroblastoma + neoplasm, NOS + papillary carcinoma + squamous-cell carcinoma + transitional-cell carcinoma, dosed 104 weeks, study length 105 weeks): 110 mg/kg/day
TD50 (rat, strain Fischer 344, females, in feed, site: nasal cavity, lesion: olfactory neuroblastoma, dosed 104 weeks, study length 105 weeks): 1190 mg/kg/day
TD50 (rat, strain Fischer 344, females, in feed, site: urinary bladder, lesion: neoplasm, NOS + papillary carcinoma + squamous-cell carcinoma + transitional-cell carcinoma, dosed 104 weeks, study length 105 weeks): 110 mg/kg/day
TD50 (rat, strain Fischer 344, females, in feed, site: uterus, lesion: endometrial stromal polyp, dosed 104 weeks, study length 105 weeks): 913 mg/kg/day
TD50 (rat, strain Fischer 344, males, in feed, site: any site (literature study), lesion: several types, types named in the paper, dosed 104 weeks, study length 105 weeks): 98 mg/kg/day
TD50 (rat, strain Fischer 344, males, in feed, site: brain + brain stem, lesion: glioma, NOS, dosed 104 weeks, study length 105 weeks): 3510 mg/kg/day
TD50 (rat, strain Fischer 344, males, in feed, site: liver + nasal cavity + nasopharynx + urinary bladder, lesion: hepatocellular carcinoma + mixed hepato/cholangio carcinoma + neoplastic nodule + adenoma, NOS + carcinoma, NOS + neuroblastoma + ne, dosed 104 weeks, study length 105 weeks): 76.3 mg/kg/day
TD50 (rat, strain Fischer 344, males, in feed, site: liver, lesion: hepatocellular adenoma + hepatocellular carcinoma + neoplastic nodule, dosed 104 weeks, study length 105 weeks): 443 mg/kg/day
TD50 (rat, strain Fischer 344, males, in feed, site: liver, lesion: hepatocellular carcinoma + mixed hepato/cholangio carcinoma + neoplastic nodule, dosed 104 weeks, study length 105 weeks): 406 mg/kg/day
TD50 (rat, strain Fischer 344, males, in feed, site: nasal cavity + nasopharynx, lesion: carcinoma, NOS + neoplasm, NOS, malignant + adenocarcinoma, NOS, dosed 104 weeks, study length 105 weeks): 4620 mg/kg/day
TD50 (rat, strain Fischer 344, males, in feed, site: nasal cavity, lesion: adenoma, NOS + carcinoma, NOS + neuroblastoma + neoplasm, NOS, malignant + olfactory neuroblastoma, dosed 104 weeks, study length 105 weeks): 397 mg/kg/day
TD50 (rat, strain Fischer 344, males, in feed, site: nasal cavity, lesion: neuroblastoma + olfactory neuroblastoma, dosed 104 weeks, study length 105 weeks): 450 mg/kg/day
TD50 (rat, strain Fischer 344, males, in feed, site: testis, lesion: interstitial-cell tumor, dosed 104 weeks, study length 105 weeks): 165 mg/kg/day
TD50 (rat, strain Fischer 344, males, in feed, site: urinary bladder, lesion: papillary carcinoma + squamous-cell carcinoma + transitional-cell carcinoma + transitional-cell papilloma + undifferentiated car, dosed 104 weeks, study length 105 weeks): 88.4 mg/kg/day

CCN(CC)c1ccc(N=Nc2cc[n+]([O-])cc2)cc1
carcinogen call (rat, strain Sprague-Dawley, males, in feed, site: liver, lesion: one or several types, types not named, dosed 52 weeks, study length 52 weeks): positive

O=P(OC(CCl)CCl)(OC(CCl)CCl)OC(CCl)CCl
TD50 (rat, strain Charles River CD (Sprague-Dawley), females, in feed, site: adrenal gland, lesion: cortical adenoma, dosed 104 weeks, study length 104 weeks): 192 mg/kg/day
TD50 (rat, strain Charles River CD (Sprague-Dawley), females, in feed, site: kidney, lesion: cortical adenoma, dosed 104 weeks, study length 104 weeks): 68.6 mg/kg/day
TD50 (rat, strain Charles River CD (Sprague-Dawley), females, in feed, site: liver, lesion: hepatocellular adenoma, dosed 104 weeks, study length 104 weeks): 324 mg/kg/day
TD50 (rat, strain Charles River CD (Sprague-Dawley), females, in feed, site: liver, lesion: hepatocellular carcinoma, dosed 104 weeks, study length 104 weeks): 721 mg/kg/day
TD50 (rat, strain Charles River CD (Sprague-Dawley), females, in feed, site: liver, lesion: several types, types named in the paper, dosed 104 weeks, study length 104 weeks): 206 mg/kg/day
TD50 (rat, strain Charles River CD (Sprague-Dawley), males, in feed, site: kidney, lesion: cortical adenoma, dosed 104 weeks, study length 104 weeks): 53.1 mg/kg/day
TD50 (rat, strain Charles River CD (Sprague-Dawley), males, in feed, site: liver, lesion: hepatocellular adenoma, dosed 104 weeks, study length 104 weeks): 252 mg/kg/day
TD50 (rat, strain Charles River CD (Sprague-Dawley), males, in feed, site: liver, lesion: hepatocellular carcinoma, dosed 104 weeks, study length 104 weeks): 390 mg/kg/day
TD50 (rat, strain Charles River CD (Sprague-Dawley), males, in feed, site: liver, lesion: several types, types named in the paper, dosed 104 weeks, study length 104 weeks): 144 mg/kg/day
TD50 (rat, strain Charles River CD (Sprague-Dawley), males, in feed, site: testis, lesion: interstitial-cell tumor, dosed 104 weeks, study length 104 weeks): 35 mg/kg/day

C=CN1CCCC1=O
TD50 (rat, strain Charles River CD (Sprague-Dawley), females, inhaled, site: any site (literature study), lesion: malignant tumor, dosed 104 weeks, study length 104 weeks): 6.12 mg/kg/day
TD50 (rat, strain Charles River CD (Sprague-Dawley), females, inhaled, site: larynx, lesion: squamous-cell carcinoma, dosed 104 weeks, study length 104 weeks): 120 mg/kg/day
TD50 (rat, strain Charles River CD (Sprague-Dawley), females, inhaled, site: liver, lesion: hepatocellular carcinoma, dosed 104 weeks, study length 104 weeks): 12.3 mg/kg/day
TD50 (rat, strain Charles River CD (Sprague-Dawley), females, inhaled, site: nasal cavity, olfactory epithelium, lesion: adenocarcinoma, dosed 104 weeks, study length 104 weeks): 120 mg/kg/day
TD50 (rat, strain Charles River CD (Sprague-Dawley), females, inhaled, site: nasal cavity, respiratory epithelium, lesion: adenoma, dosed 52 weeks, study length 52 weeks): 19.8 mg/kg/day
TD50 (rat, strain Charles River CD (Sprague-Dawley), females, inhaled, site: nasal cavity, respiratory epithelium, lesion: adenoma, dosed 104 weeks, study length 104 weeks): 20.4 mg/kg/day
TD50 (rat, strain Charles River CD (Sprague-Dawley), males, inhaled, site: any site (literature study), lesion: malignant tumor, dosed 104 weeks, study length 104 weeks): 5 mg/kg/day
TD50 (rat, strain Charles River CD (Sprague-Dawley), males, inhaled, site: any site (literature study), lesion: several types, types named in the paper, dosed 104 weeks, study length 104 weeks): 1.99 mg/kg/day
TD50 (rat, strain Charles River CD (Sprague-Dawley), males, inhaled, site: larynx, lesion: squamous-cell carcinoma, dosed 104 weeks, study length 104 weeks): 84 mg/kg/day
TD50 (rat, strain Charles River CD (Sprague-Dawley), males, inhaled, site: liver, lesion: hepatocellular carcinoma, dosed 104 weeks, study length 104 weeks): 12 mg/kg/day
TD50 (rat, strain Charles River CD (Sprague-Dawley), males, inhaled, site: nasal cavity, olfactory epithelium, lesion: adenocarcinoma, dosed 104 weeks, study length 104 weeks): 32.9 mg/kg/day
TD50 (rat, strain Charles River CD (Sprague-Dawley), males, inhaled, site: nasal cavity, respiratory epithelium, lesion: adenoma, dosed 52 weeks, study length 52 weeks): 8.56 mg/kg/day
TD50 (rat, strain Charles River CD (Sprague-Dawley), males, inhaled, site: nasal cavity, respiratory epithelium, lesion: adenoma, dosed 104 weeks, study length 104 weeks): 11.7 mg/kg/day

C#C[C@]1(O)CC[C@H]2[C@@H]3CCc4cc(O)ccc4[C@H]3CC[C@@]21C
TD50 (rat, strain Slc-Wistar, females, by gavage, site: liver, lesion: hepatocellular carcinoma, dosed 52 weeks, study length 52 weeks): 0.2 mg/kg/day

Reference: PubChem BioAssay AID1745844 (Carcinogenic Potency Database (CPDB), 2022)
